Measurements from publication PMC5755735, “Discovery of indolylpiperazinylpyrimidines with dual-target profiles at adenosine A2A and dopamine D2 receptors for Parkinson's disease treatment” (PLoS ONE, 2018).
Where a name gives a salt, the structure may show the parent alone.

Tests used:
[1] = biological target: T1, human A1 receptors expressed in CHO cells (Homo sapiens, UniProt P30542); assay: competition binding at human A1 adenosine receptors ([3H]CCPA displacement); settings: displacement of [3H]CCPA, 95% confidence limits, n = 3–6, read-out: Ki hA1
T1 sequence (P30542 1-326): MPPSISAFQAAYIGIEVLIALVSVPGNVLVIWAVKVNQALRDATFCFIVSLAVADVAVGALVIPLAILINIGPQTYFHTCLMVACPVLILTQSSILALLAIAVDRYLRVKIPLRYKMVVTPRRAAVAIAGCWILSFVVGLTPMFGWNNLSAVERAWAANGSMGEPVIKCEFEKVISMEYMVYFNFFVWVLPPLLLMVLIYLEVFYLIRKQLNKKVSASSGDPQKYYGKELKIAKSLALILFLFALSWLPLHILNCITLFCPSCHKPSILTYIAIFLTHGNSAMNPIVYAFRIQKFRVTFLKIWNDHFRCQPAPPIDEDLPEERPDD
Method: (§1) A two-step procedure was adopted to prepare membrane for radioligand binding from cells stably transfected with human adenosine receptor subtypes (hA1, hA2A and hA3 expressed on CHO cells). Firstly, cell fragments and nuclei were removed by using low-speed centrifugation (1,000 g for 10 min). After that, crude membrane fraction from supernatant was then sedimented at 100,000 g for 30 min. The membrane pellet was subsequently re-suspended in the specific binding buffer, frozen in liquid nitrogen and stored at -80°C. For measurement of adenylyl cyclase activity in the hA2B receptors, one-step centrifugation procedure was used; the homogenate was sedimented for 30 min at 54,000 g. The so-obtained crude membrane pellet was re-suspended in 50 mM Tris/HCl, pH 7.4 and used for the adenylyl cyclase assay immediately.
(§2) Non-specific binding was determined using theophylline 1 mM. […] Non-specific binding was determined using N^6-R-phenylisopropyl adenosine (R-PIA) 100 μM. ^41 The binding of [^3H]HEMADO to CHO cells transfected with hA3 adenosine receptors was carried out as described earlier. […] Non-specific binding was determined using R-PIA 100 μM.
(§3) The assay mixture was then filtered through the built-in filter at the bottom of the 96-well microplate filtration system (Millipore Multiscreen MAFC) and washed three times with 200 μL of cold buffer. After addition of 20 μL of scintillator to the dried filter plates, the filter bound radioactivity was counted on a Wallac Micro-Beta counter. All Ki values were calculated by non-linear curve fitting with the program SCTFIT [45].

[2] = biological target: human A2A receptors expressed in CHO cells (Homo sapiens, UniProt P29274); assay: competition binding at human A2A adenosine receptors ([3H]NECA displacement); settings: for Ki: displacement of [3H]NECA, CHO cells, 95% confidence limits, n = 3–6, read-out: Ki hA2A; for hA1/hA2A / hA3/hA2A: selectivity ratio of Ki values
Method: as §1, §2, §3

[3] = biological target: T2, human A3 receptors expressed in CHO cells (Homo sapiens, UniProt P0DMS8); assay: competition binding at human A3 adenosine receptors ([3H]HEMADO displacement); settings: displacement of [3H]HEMADO, 95% confidence limits, n = 3–6, read-out: Ki hA3
T2 sequence (P0DMS8 1-318): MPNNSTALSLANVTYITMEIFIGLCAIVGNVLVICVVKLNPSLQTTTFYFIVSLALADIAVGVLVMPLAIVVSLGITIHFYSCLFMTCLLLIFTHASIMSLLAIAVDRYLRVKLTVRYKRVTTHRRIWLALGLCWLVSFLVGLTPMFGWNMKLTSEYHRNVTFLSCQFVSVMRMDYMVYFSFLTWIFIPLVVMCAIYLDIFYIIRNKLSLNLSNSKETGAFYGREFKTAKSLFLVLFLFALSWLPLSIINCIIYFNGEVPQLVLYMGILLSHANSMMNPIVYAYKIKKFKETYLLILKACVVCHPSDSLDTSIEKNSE
Method: as §1, §2, §3

[4] = biological target: T3, human A2B receptors expressed in CHO cells (Homo sapiens, UniProt P29275); assay: inhibition of NECA-stimulated adenylyl cyclase activity at hA2B
T3 sequence (P29275 1-332): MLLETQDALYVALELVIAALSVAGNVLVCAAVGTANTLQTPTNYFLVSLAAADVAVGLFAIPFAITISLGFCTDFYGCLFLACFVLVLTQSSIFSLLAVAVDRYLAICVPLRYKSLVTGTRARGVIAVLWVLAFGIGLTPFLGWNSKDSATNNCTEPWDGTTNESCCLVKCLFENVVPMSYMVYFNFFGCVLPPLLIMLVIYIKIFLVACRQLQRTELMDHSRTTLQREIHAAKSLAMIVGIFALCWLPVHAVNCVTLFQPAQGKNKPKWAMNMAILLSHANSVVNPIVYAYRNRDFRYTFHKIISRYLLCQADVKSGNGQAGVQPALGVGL
Method: The membranes were incubated with about 150,000 cpm of [α-^32P]adenosine triphosphate ([α-^32P]ATP) and test compounds in different concentrations for 20 min. A non-linear regression analysis was applied to calculate the IC50 of the adenylyl cyclase activity assay. From the IC50 values, Ki values were then calculated using the Cheng and Prusoff equation [46].

[5] = biological target: T2, human A3 receptors expressed in CHO cells; parameters: method as in PMID 17126322; settings: read-out: KD of radioligand at hA3; cited from earlier work
D2 receptor = settings: competition binding experiments with [3H]spiperone; cited from earlier work
hA2A = settings: read-out: Ki hA2A; cited from earlier work

Chain of human A2A receptors expressed in CHO cells (P29274 whole entry): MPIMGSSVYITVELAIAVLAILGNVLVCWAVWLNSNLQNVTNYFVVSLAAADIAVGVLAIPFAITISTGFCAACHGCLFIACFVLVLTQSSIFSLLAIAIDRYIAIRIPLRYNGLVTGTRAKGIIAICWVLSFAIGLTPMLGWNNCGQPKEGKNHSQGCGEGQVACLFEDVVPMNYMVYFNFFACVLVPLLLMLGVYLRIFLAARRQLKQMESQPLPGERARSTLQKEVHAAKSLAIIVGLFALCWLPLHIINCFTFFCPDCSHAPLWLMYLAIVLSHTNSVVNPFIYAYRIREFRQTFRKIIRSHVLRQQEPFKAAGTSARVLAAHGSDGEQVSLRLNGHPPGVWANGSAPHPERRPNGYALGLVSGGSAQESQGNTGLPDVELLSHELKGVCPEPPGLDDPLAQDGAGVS

| SMILES | Ki [1] [µM] | Ki [2] [µM] | Ki [3] [µM] | Ki [4] [µM] | hA1/hA2A [2] | hA3/hA2A [2] | fold improvement in hA2A affinity ([2]; versus compound 5) [fold] | Kd [5] [µM] | Ki (D2 receptor) [µM] | Ki (hA2A) [µM] | fold decrease in hA2A affinity ([2]; versus compound 6) [fold] |
| --- | --- | --- | --- | --- | --- | --- | --- | --- | --- | --- | --- |
| Cc1cc(C)nc(N2CCN(C(=O)Cc3c(C)[nH]c4c(F)cc(Br)cc34)CC2)n1 [Compound 17, 2‐(5‐Bromo‐7‐fluoro‐2‐methyl‐1H‐indol‐3‐yl)‐1‐[4‐(4,6-dimethylpyrimidin‐2‐yl)piperazin‐1‐yl]ethan‐1‐one] | > 100 | > 100 | > 100 | > 20 |  |  |  |  |  |  |  |
| Cc1cc(C)nc(N2CCN(C(=O)c3c[nH]c4ccc(Cl)cc34)CC2)n1 [Compound 16, 5‐Chloro‐3‐[4‐(4,6‐dimethylpyrimidin‐2‐yl)piperazine‐1‐carbonyl]‐1H‐indole] | > 100 | 15.5 | 19.5 | > 20 | >7 | 1.26 |  |  |  |  |  |
| COc1cccc2c(C(=O)N3CCN(c4nc(C)cc(C)n4)CC3)c[nH]c12 [Compound 20, 3‐[4‐(4,6‐Dimethylpyrimidin‐2‐yl)piperazine‐1‐carbonyl]‐7‐methoxy‐1H‐indole] | > 100 | 3.63 | > 30 | > 20 | >28 | >8 | 3 |  |  |  |  |
| Cc1cc(C)nc(N2CCN(CCCc3c[nH]c4ccccc34)CC2)n1 [Compound 11, 3‐{3‐[4‐(4,6‐Dimethylpyrimidin‐2‐yl)piperazin‐1‐yl]propyl}‐1H‐indole] |  | > 100 |  | > 20 |  |  |  |  |  |  |  |
| Cc1cc(C)nc(N2CCN(C(=O)c3cc4cc(F)ccc4[nH]3)CC2)n1 [Compound 22, 2‐[4‐(4,6‐Dimethylpyrimidin‐2‐yl)piperazine‐1‐carbonyl]‐5‐fluoro‐1H‐indole] | > 100 | > 100 | > 100 | > 20 |  |  |  |  |  |  |  |
| Cc1cc(C)nc(N2CCN(C(=O)CCc3c[nH]c4ccccc34)CC2)n1 [Compound 7, 1‐[4‐(4,6‐Dimethylpyrimidin‐2‐yl)piperazin‐1‐yl]‐3‐(1H‐indol‐3-yl)propan‐1‐one] |  | > 100 |  | > 20 |  |  |  |  |  |  |  |
| Cc1cc(C)nc(N2CCN(CCc3c(C)[nH]c4ccccc34)CC2)n1 [Compound 10, 3‐{2‐[4‐(4,6‐Dimethylpyrimidin‐2‐yl)piperazin‐1‐yl]ethyl}‐2‐methyl‐1H‐indole] | > 100 | 34.4 | 39.8 | > 20 | >3 | 1.16 |  |  |  |  |  |
| Cc1cc(C)nc(N2CCN(C(=O)c3cc4ccccc4[nH]3)CC2)n1 [Compound 21, 2‐[4‐(4,6‐Dimethylpyrimidin‐2‐yl)piperazine‐1‐carbonyl]‐1H‐indole] | > 100 | > 100 | > 100 | > 20 |  |  |  |  |  |  |  |
| Cc1cc(C)nc(N2CCN(C(=O)Cc3c[nH]c4cc(F)ccc34)CC2)n1 [Compound 19, 1‐[4‐(4,6‐Dimethylpyrimidin‐2‐yl)piperazin‐1‐yl]‐2‐(6‐fluoro‐1H‐indol‐3‐yl)ethan‐1‐one] | > 100 | 26.9 | > 30 | > 20 | >4 | >1 |  |  |  |  |  |
| Cc1cc(C)nc(N2CCN(C(=O)CCCc3c[nH]c4ccccc34)CC2)n1 [Compound 8, 1‐[4‐(4,6‐Dimethylpyrimidin‐2‐yl)piperazin‐1‐yl]‐4‐(1H‐indol‐3‐yl)butan‐1‐one] |  | > 100 |  | > 20 |  |  |  |  |  |  |  |
| Cc1cc(C)nc(N2CCN(Cc3c[nH]c4ccccc34)CC2)n1 [Compound 9, 3‐{[4‐(4,6‐Dimethylpyrimidin‐2‐yl)piperazin‐1‐yl]methyl}‐1H‐indole] | > 100 | > 30 | > 30 | > 20 |  |  |  |  |  |  |  |
| Cc1ccc2[nH]c(C(=O)N3CCN(c4nc(C)cc(C)n4)CC3)cc2c1 [Compound 23, 2‐[4‐(4,6‐Dimethylpyrimidin‐2‐yl)piperazine‐1‐carbonyl]‐5‐methyl‐1H‐indole] | > 100 | > 100 | > 100 | > 20 |  |  |  |  |  |  |  |
| Cc1cc(C)nc(N2CCN(C(=O)Cc3c(C)[nH]c4ccc(F)cc34)CC2)n1 [Compound 15, 1‐[4‐(4,6‐Dimethylpyrimidin‐2‐yl)piperazin‐1‐yl]‐2‐(5‐fluoro‐2‐methyl‐1H‐indol‐3‐yl)ethan‐1‐one] | > 100 | 18.2 | > 30 | > 20 | >6 | >2 |  |  |  |  |  |
| CCCCC#Cc1nc(NC)c2ncn([C@@H]3O[C@H](CO)[C@@H](O)[C@H]3O)c2n1 [[^3H]HEMADO, [^3H]-2-hexyn-1-yl-N^6-methyladenosine] |  |  |  |  |  |  |  | 0.0011 |  |  |  |
| Cc1cc(C)nc(N2CCN(C(=O)c3cc4cccc([N+](=O)[O-])c4[nH]3)CC2)n1 [Compound 25, {2‐[4‐(4,6‐Dimethylpyrimidin‐2‐yl)piperazine‐1‐carbonyl]‐1H‐indol‐7‐yl}azinic acid] | 4.82 | 29.7 | > 30 | > 20 | 0.16 | >1 |  |  |  |  |  |
| CCCN(CCc1ccccc1)C1CCc2c(O)cccc2C1 (racemic) [(±)-PPHT.HCl, (±)-2-(N-phenethyl-N-propyl)amino-5-hydroxytetralin hydrochloride] |  |  |  |  |  |  |  |  | 0.0133 |  |  |
| COc1ccc2[nH]cc(C(=O)N3CCN(c4nc(C)cc(C)n4)CC3)c2c1 [Compound 14, 3‐[4‐(4,6‐Dimethylpyrimidin‐2‐yl)piperazine‐1‐carbonyl]‐5‐methoxy‐1H‐indole] | > 100 | 12.7 | > 30 | > 20 | >8 | >2 |  |  |  |  |  |
| CCn1c(=O)c2c(nc(/C=C/c3ccc(OC)c(OC)c3)n2C)n(CC)c1=O [KW-6002] |  |  |  |  |  |  |  |  |  | 0.012 |  |
| COc1cccc2[nH]cc(C(=O)N3CCN(c4nc(C)cc(C)n4)CC3)c12 [Compound 13, 3‐[4‐(4,6‐Dimethylpyrimidin‐2‐yl)piperazine‐1‐carbonyl]‐4‐methoxy‐1H‐indole] | > 100 | 18.8 | > 30 | > 20 | >5 | >2 |  |  |  |  |  |
| COc1ccc2[nH]c(C(=O)N3CCN(c4nc(C)cc(C)n4)CC3)cc2c1 [Compound 24, 2‐[4‐(4,6‐Dimethylpyrimidin‐2‐yl)piperazine‐1‐carbonyl]‐5‐methoxy‐1H‐indole] | > 30 | > 30 | > 30 | > 20 |  |  |  |  |  |  |  |
| Cc1cc(C)nc(N2CCN(CCCCc3c[nH]c4ccccc34)CC2)n1 [Compound 12, 3‐{4‐[4‐(4,6‐Dimethylpyrimidin‐2‐yl)piperazin‐1‐yl]butyl}‐1H‐indole] |  | > 100 |  | > 20 |  |  |  |  |  |  |  |
| Cc1cc(C)nc(N2CCN(C(=O)Cc3c[nH]c4ccccc34)CC2)n1 [Compound 18, 1‐[4‐(4,6‐Dimethylpyrimidin‐2‐yl)piperazin‐1‐yl]‐2‐(1H‐indol‐3‐yl)ethan‐1‐one] | > 100 | 27.6 | > 30 | > 20 | >4 | >1 |  |  |  |  | 3.2 |
